# Test results published in patent US11653650B2, “Fungicide composition and method for controlling disease of crop” (ISHIHARA SANGYO KAISHA, LTD., priority 2017, dated 2023).
# Read-outs that look alike come from different tables or passages of the source.
# Experiments:
# [1] = system: Apple anthracnose (apple bitter rot) fungus, Colletotrichum gloeosporioides; assay: Inhibitory effect test for hyphal elongation on PDA, 20° C., 2 days; type: cell-based; conditions: read-out: Inhibition rate (%)
# Experimental: (§1) Test Example 4: Inhibitory Effect Test for Hyphal Elongation (Apple Anthracnose (Apple Bitter Rot) Fungus, Colletotrichum gloeosporioides) A fungal flora (diameter: 4 mm) obtained by pre-cultivation was transplanted on PDA containing a given concentration of a chemical and then cultured at room temperature of 20° C. for 2 days, followed by measuring the diameter of the grown flora in the same manner as described in Test Example 3 to determine the hyphal elongation inhibition rate. In addition, theoretical values (of the hyphal elongation inhibition rate) were calculated according to the Colby's calculation formula based on the above determined hyphal elongation inhibition rate, and presented in parenthesis in the table.
# [2] = system: pear scab (Japanese pear scab); assay: Effect test against pear scab (Japanese pear scab), effect on fruits, sprayed adult pear trees; type: in vivo, pear (cultivar: Housui); conditions: 8 days after the final spraying
# Experimental: Test Example 2: Effect Test Against Pear Scab (Japanese Pear Scab) (Effect on Fruits) A given amount of a chemical was sprayed on adult trees of pear (cultivar: Housui) with a pressurized sprayer in an amount sufficient to drip from the leaves and fruits. The spraying was performed four times in total at intervals of 6 to 11 days, about 50 fruits per area were investigated about the presence or absence of the onset of the disease 8 days after the final spraying, and the ratio of the fruits with the onset of the disease and the disease control value were calculated (in triplicate). In addition, the theoretical value (of the disease control value) by mixing was also calculated according to the Colby's formula. Disease control value=(1−a/b)×100 wherein a: Mean ratio of fruits with the onset of the disease in the treated area, b: Mean ratio of fruits with the onset of the disease in the untreated area.
# [3] = system: Apple anthracnose (apple bitter rot) fungus, Colletotrichum acutatum; assay: Inhibitory effect test for hyphal elongation on PDA, 20° C., 2 days; type: cell-based; conditions: read-out: Inhibition rate (%)
# Experimental: as §1, with “Test Example 5: Inhibitory Effect” for “Test Example 4: Inhibitory Effect”, “Fungus, Colletotrichum acutatum) A fungal” for “Fungus, Colletotrichum gloeosporioides) A fungal”, “the hyphal elongation, inhibition rate.” for “the hyphal elongation inhibition rate.”
# [4] = system: Pear scab (Japanese pear scab) fungus, Venturia nashicola; assay: Inhibitory effect test for hyphal elongation on PDA, 20° C., 25 days; type: cell-based; conditions: read-out: Inhibition rate (%)
# Experimental: Test Example 3: Inhibitory Effect Test for Hyphal Elongation (Pear Scab (Japanese Pear Scab) Fungus, Venturia nashicola) A fungal flora (diameter: 4 mm) obtained by pre-cultivation was transplanted on PDA (potato dextrose agar medium) containing a given concentration of a chemical and then cultured at room temperature of 20° C. for 25 days, followed by measuring the diameter (mm) of the grown flora to determine the hyphal elongation inhibition rate. In addition, theoretical values (of the hyphal elongation inhibition rate) were calculated according to the Colby's calculation formula based on the above determined hyphal elongation inhibition rate, and presented in parenthesis in the table. Inhibition rate=(1−a/b)×100 wherein a: “Mean diameter (mm) of flora in the treated area”—4, b: “Mean diameter (mm) of flora in the untreated area”—4 Colby's formula=(X+Y)−XY/100 X: Inhibition rate when using isofetamid alone Y: Inhibition rate when using mandestrobin alone. When the experimental value is higher than the theoretical value, the fungicide composition of the present invention has a synergistic effect on pear scab (Japanese pear scab) fungus.
# [5] = system: pear scab (Japanese pear scab); assay: Effect test against pear scab (Japanese pear scab), effect on leaves, sprayed adult pear trees; type: in vivo, pear (cultivar: Housui); conditions: sprayed four times
# Experimental: Test Example 1: Effect Test Against Pear Scab (Japanese Pear Scab) (Effect on Leaves) A given amount of a chemical was sprayed on adult trees of pear (cultivar: Housui) with a pressurized sprayer in an amount sufficient to drip from the leaves. The spraying was performed four times in total at intervals of 8 to 10 days, about 50 leaves per area were investigated about the presence or absence of the onset of the disease days after the final spraying, and the ratio of the leaves with the onset of the disease and the disease control value were calculated (in triplicate). In addition, the theoretical value (of the disease control value) by mixing was also calculated according to the Colby's formula. Disease control value=(1−a/b)×100 wherein a: Mean ratio of leaves with the onset of the disease in the treated area, b: Mean ratio of leaves with the onset of the disease in the untreated area; Colby's formula=(X+Y)−XY/100 wherein X: Disease control value when using isofetamid alone, Y: Disease control value when using mandestrobin alone. When the actually measured value is higher than the theoretical value, the fungicide composition of the present invention has a synergistic effect on pear scab (Japanese pear scab).
# [6] = Isofetamid 0.01 ppm alone (Mandestrobin 0 ppm)
# [7] = Isofetamid 0.1 ppm alone (Mandestrobin 0 ppm)
# [8] = Isofetamid 1 ppm alone (Mandestrobin 0 ppm)
# [9] = Isofetamid 10 ppm alone (Mandestrobin 0 ppm)
# [10] = Mandestrobin 0.01 ppm alone (Isofetamid 0 ppm)
# [11] = Mandestrobin 0.1 ppm alone (Isofetamid 0 ppm)
# [12] = Mandestrobin 1 ppm alone (Isofetamid 0 ppm)
# [13] = Mandestrobin 10 ppm alone (Isofetamid 0 ppm)
smiles,measurement,setting,value
"Cc1cc(OC(C)C)ccc1C(=O)C(C)(C)NC(=O)c1sccc1C [Isofetamid, N-[1,1-dimethyl-2-(4-isopropoxy-o-tolyl)-2-oxoethyl]-3-methylthiophene-2-carboxamide]",inhibition at 0.01 ppm,[1]; [6],0%
same,inhibition at 0.1 ppm,[1]; [7],0%
same,inhibition at 1 ppm,[1]; [8],0%
same,inhibition at 10 ppm,[1]; [9],2.6%
same,Disease control value,[2]; Isofetamid 93 ppm,83.4
same,Ratio of fruits with onset of disease (%),[2]; Isofetamid 93 ppm,7.6%
same,Disease control value,[2]; Isofetamid 134 ppm,77.5
same,Ratio of fruits with onset of disease (%),[2]; Isofetamid 134 ppm,10.3%
same,Disease control value,[2]; Isofetamid 187 ppm,62.3
same,Ratio of fruits with onset of disease (%),[2]; Isofetamid 187 ppm,17.2%
same,inhibition at 0.01 ppm,[3]; [6],6.9%
same,inhibition at 0.1 ppm,[3]; [7],3%
same,inhibition at 1 ppm,[3]; [8],0%
same,inhibition at 10 ppm,[3]; [9],24.8%
same,inhibition at 0.01 ppm,[4]; [6],0%
same,inhibition at 0.1 ppm,[4]; [7],8.5%
same,inhibition at 1 ppm,[4]; [8],49.6%
same,inhibition at 10 ppm,[4]; [9],100%
same,Disease control value,[5]; Isofetamid 90 ppm,66.3
same,Ratio of leaves with onset of disease (%),[5]; Isofetamid 90 ppm,31.3%
same,Disease control value,[5]; Isofetamid 190 ppm,56.4
same,Ratio of leaves with onset of disease (%),[5]; Isofetamid 190 ppm,40.5%
"CNC(=O)C(OC)c1ccccc1COc1cc(C)ccc1C (racemic) [Mandestrobin, (RS)-2-methoxy-N-methyl-2-[α-(2,5-xylyloxy)-o-tolyl]acetamide]",inhibition at 0.01 ppm,[1]; [10],1.9%
same,inhibition at 0.1 ppm,[1]; [11],3.8%
same,inhibition at 1 ppm,[1]; [12],14.1%
same,inhibition at 10 ppm,[1]; [13],33.3%
same,Disease control value,[2]; Mandestrobin 70 ppm,77.5
same,Ratio of fruits with onset of disease (%),[2]; Mandestrobin 70 ppm,10.3%
same,Disease control value,[2]; Mandestrobin 100 ppm,90.1
same,Ratio of fruits with onset of disease (%),[2]; Mandestrobin 100 ppm,4.5%
same,Disease control value,[2]; Mandestrobin 140 ppm,93.4
same,Ratio of fruits with onset of disease (%),[2]; Mandestrobin 140 ppm,3.0%
same,inhibition at 0.01 ppm,[3]; [10],0%
same,inhibition at 0.1 ppm,[3]; [11],0%
same,inhibition at 1 ppm,[3]; [12],42.6%
same,inhibition at 10 ppm,[3]; [13],55.4%
same,inhibition at 0.01 ppm,[4]; [10],0%
same,inhibition at 0.1 ppm,[4]; [11],12.8%
same,inhibition at 1 ppm,[4]; [12],27.7%
same,inhibition at 10 ppm,[4]; [13],44.7%
same,Disease control value,[5]; Mandestrobin 70 ppm,65.9
same,Ratio of leaves with onset of disease (%),[5]; Mandestrobin 70 ppm,31.7%
same,Disease control value,[5]; Mandestrobin 140 ppm,74.9
same,Ratio of leaves with onset of disease (%),[5]; Mandestrobin 140 ppm,23.3%
